In patent publication US5912259A, “Method for treating and preventing neurodegenerative disorders by administering a thiazolidinone” (Warner-Lambert Company, priority 1998, dated 1999):

Assays:
[1] = tested on: experimental autoimmune encephalomyelitis (EAE); assay: Experimental autoimmune encephalomyelitis (EAE) in mice, Experiment 2; type: in vivo, mouse, PL/J(F1)×SJL/J; conditions: sensitized
Protocol: The thiazolidinone was evaluated in a mouse model of experimental autoimmune encephalomyelitis (EAE). The compound was administered orally to mice sensitized with a fragment of mouse myelin basic protein to induce EAE. Two experiments were conducted using the same protocol and neurological evaluations. Test animals were dosed for 21 days, beginning 4 hours before sensitization on Day 1. The effects of the thiazolidinone were compared to a control group of mice sensitized identically and dosed with vehicle alone. Neurological evaluations continued after cessation of drug treatment. The values reported in Tables 1 and 2 below include responses during drug treatment only.
The thiazolidinone was homogenized manually with an aliquot of warm vehicle (0.5% hydroxypropyl methylcellulose with 0.2% Tween 80in water) in glass mortar tubes and homogenizing pestle. The smooth drug paste was gradually suspended in vehicle. Mice were dosed with drug and/or vehicle, […] in groups of ten (Experiment 1) or twenty (Experiment 2). Mice were dosed from Experiment Day 1 to Day 21. A sham-sensitized group was similarly dosed with vehicle or thiazolidinone 30 mg/kg (Experiment 1).
Female mice, strain PL/J(F1)×SJL/J from Jackson Labs, were sensitized s.c. (0.05 cc×2) at the base of the tail with an emulsion containing equal parts of mouse myelin basic protein (MBP) fragment (amino acids 1-9 of the N-terminus of MBP) in saline and Difco Complete Freund's Adjuvant (CFA) fortified with heat killed desiccated Mycobacteria tuberculosis (MT). Each mouse received 300 μg of the MBP fragment (230 μg free base) and 200 μg MT followed by retrobulbar (i.v.) injection of 200 ng of B. pertussis toxin in 0.2 cc of saline. Forty-eight hours later, mice received a second injection of B. pertussis toxin. Mice in Experiment 1 were 8 to 9 weeks old; mice in Experiment 2 were 11 weeks old.
Animals were weighed and evaluated for symptoms of EAE before sensitization and frequently for 21 days. EAE score: (0.5=slight limp tail, 1=limp tail or slow to right, 1.5=slight limp tail and slow to right, 2=paresis/mild paralysis or incontinence, 2.5=mild paralysis and slow to right or complete paralysis (one hind limb), 3=hind limb paralysis (both), 3.5=hind limb paralysis (both) and limp torso; 4=additional fore limb paralysis, 4.5=head movement only, 5=moribund, death after previous EAE symptoms). Evaluators were blinded as to drug treatments and previous behavioral scores.
Disease symptoms were compared among groups for EAE severity, incidence, time to onset, cumulative score, deaths, and weight loss. Peak EAE score: the mean of highest score of each mouse in a group, independent of duration of symptoms; EAE incidence: the mean number of mice showing symptoms of EAE, defined as having EAE scores on any three consecutive days that total≥3.0. EAE deaths: An animal that died must have presented previous evidence of an EAE score greater than 0.5; EAE onset: the first of a 3-day series scoring a total of≥3.0. A Cumulative EAE score is calculated for each animal. A mean of all animals' cumulative score is then determined for each day. Maximum weight loss: the mean of the lowest weight for each animal in a group. (Note: The Cumulative EAE score and the Maximum weight loss can be influenced by death which eliminates severely diseased animals. The number of days that animals are scored also affects the cumulative score and can only be compared "within-trial"). Mice that die from dosing trauma or with no previous symptoms of EAE are deleted from the study. Experimental groups were assumed to be similar and were compared for statistical significance by a two-tailed t-test (p≤0.05).
The previous study was repeated with three larger groups of sensitized mice treated with (1) vehicle, (2) thiazolidinone at 10 mg/kg, or (3) thiazolidinone at 30 mg/kg.

ICAM-1 = assay: Cell-surface expression of ICAM-1; type: cell-based
[2] = Toxicology studies in rats; type: in vivo, rat
Protocol: As noted above, the thiazolidinone is additionally well-suited to treating elderly patients because of its long duration of action and its substantial lack of undesirable side effects. Toxicologic properties of the thiazolidinone were evaluated in single-dose oral and intravenous (IV) studies in mice and rats and multidose oral studies in rats and dogs. The thiazolidinone was tested in dogs and monkeys in escalating-dose oral toxicity to determine the most sensitive nonrodent species. […] The initial 13-week dog study was repeated to evaluate the reproducibility of the perivascular effects. Dose range-finding studies were performed in pregnant rats and rabbits, and genotoxic potential was assessed in vitro and in vivo. […] Based on exposure at the no-effect dose in definitive studies, the rat appears to be the most sensitive species followed by the dog and the monkey, albeit with minor differences in exposure between the species.

[3] = General pharmacokinetic and tolerability properties
[4] = rats, definitive 13-week studies

CC(C)(C)c1cc(/C=C2\SC(N)=NC2=O)cc(C(C)(C)C)c1O [CI-1004, (Z)-5-[[3,5-bis(1,1-dimethylethyl)-4-hydroxyphenyl]methylene]-2-imino-4-thiazolidinone methanesulfonate]
Cumulative Score ([1]; 10 mg/kg oral): 31.3 ± 3.6 | Deaths ([1]; 10 mg/kg oral): 10/20 | EAE Incidence ([1]; 10 mg/kg oral): 19/19 | EAE Onset ([1]; 10 mg/kg oral): 11.8 days | EAE Peak Score ([1]; 10 mg/kg oral): 4.5 ± 0.7 | Cumulative Score ([1]; 30 mg/kg oral): 28.9 ± 2.7 | Deaths ([1]; 30 mg/kg oral): 8/20 | EAE Incidence ([1]; 30 mg/kg oral): 20/20 | EAE Onset ([1]; 30 mg/kg oral): 12.4 days | EAE Peak Score ([1]; 30 mg/kg oral): 4.3 ± 0.2 | daily EAE score or overall EAE responses ([1]; 10 or 30 mg/kg): no effect on the daily EAE score or overall EAE responses | cell-surface expression of ICAM-1 (ICAM-1): blocks | renal effects ([2]; female rats, 10 mg/kg): Renal effects were seen | toxic effects ([2]; male rats, 10 mg/kg): No effects were observed | hepatic enzyme induction ([2]; rats): hepatic enzyme induction which was not associated with overt organ toxicity | gastrointestinal effects [2, 4]: gastrointestinal effects | renal effects [2, 4]: minor renal effects | GI tract and kidney tolerability [3]: relatively benign to the GI tract and kidneys | blood-brain barrier passage [3]: readily crosses the blood-brain barrier | half-life [3]: relatively long half-life
